The text below walks through data of ChEMBL document CHEMBL1141746, “Three new diterpenes from the marine soft coral Lobophytum crassum” (1998).

The structures appear in SMILES notation. Activity calls are given as the source filed them. No cut-off for these calls is given here.

The subject of experiment [1] is Microbotryum violaceum. The experiment in a line: Antimicrobial activity against Ustilago violacea at 50 ug by agar plate diffusion assay. Type of experiment: functional. The following applies: read-out: IZ.
The target in experiment [2] is Tyrosine-protein kinase Lck (Homo sapiens) (UniProt P06239). The experiment in a line: Inhibition of tyrosine kinase lckp56 by ELISA. (In an ELISA, binding on a coated surface is turned into a signal by an enzyme label.)
Tyrosine-protein kinase Lck (Homo sapiens), sequence (P06239 2-509 limits assumed): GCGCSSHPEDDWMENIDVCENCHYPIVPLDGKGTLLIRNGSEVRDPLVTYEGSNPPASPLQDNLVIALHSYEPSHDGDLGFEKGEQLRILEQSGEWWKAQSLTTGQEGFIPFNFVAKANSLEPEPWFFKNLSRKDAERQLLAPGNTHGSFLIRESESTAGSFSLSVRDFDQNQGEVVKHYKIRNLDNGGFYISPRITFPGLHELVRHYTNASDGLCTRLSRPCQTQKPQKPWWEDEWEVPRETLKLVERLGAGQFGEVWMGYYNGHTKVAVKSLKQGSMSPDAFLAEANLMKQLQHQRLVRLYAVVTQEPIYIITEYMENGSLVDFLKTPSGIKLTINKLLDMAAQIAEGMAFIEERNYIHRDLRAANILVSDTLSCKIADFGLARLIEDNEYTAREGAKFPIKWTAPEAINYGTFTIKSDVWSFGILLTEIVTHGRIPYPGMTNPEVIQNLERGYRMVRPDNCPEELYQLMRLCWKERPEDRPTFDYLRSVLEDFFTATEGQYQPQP
Experiment [3] addresses Human immunodeficiency virus type 1 reverse transcriptase (Human immunodeficiency virus 1) (UniProt Q72547). Description: Inhibition of HIV1 reverse transcriptase by ELISA.
In experiment [4] the test system is [Chlorella] fusca. Description: Antimicrobial activity against Chlorella fusca at 50 ug by agar plate diffusion assay. Type of experiment: functional. The following applies: Scenedesmus fuscus; read-out: IZ.

For the compound `COC(=O)C(C)/C1=C/C=C(\C)CC[C@H]2O[C@]2(C)CC/C=C(\C)CC1` (some centres not stated), in experiment [1], the zone of inhibition at 50 µg/disc came to 1 mm. Moreover, the result in experiment [2] and in experiment [3] was inactive.
On to `CC1=C2CC/C(C)=C/CC[C@@]3(C)O[C@H]3CC/C(C)=C/[C@@H]2OC1`, for which the zone of inhibition at 50 µg/disc in experiment [4] and in experiment [1] was 3 mm each time. Also, the outcome in experiment [2] and in experiment [3] was inactive.
